Values after ≈ are worked out from the molar mass of the structure shown.
What was measured:
[1] = test system: T1, Staphylococcus aureus NCTC-8325; assay: microbe, parasite or virus in culture; design: antimicrobial susceptibility assay, MIC, growth inhibition of S. aureus parent strain; details: NCTC8325
T1 construct: NCTC 8325
Procedure: The ability of S. aureus to develop resistance to BASA was investigated using both spontaneous resistance and serial passage approaches. The S. aureus NCTC 8325 strain was selected due to the availability of a sequenced reference genome for comparative sequence analysis. To measure the rate at which spontaneous resistance develops, 10^9 S. aureus cells were plated onto media containing four times the MIC of BASA. No resistant mutants grew after 24 hours which equates to a calculated resistance frequency of <10^−9 at this inhibitor concentration. BASA resistant S. aureus strains were subsequently generated by the serial passage of seven populations of S. aureus NCTC 8325 in sub-inhibitory concentrations of BASA for 18 days at which time individual colonies were isolated. These were then passaged on non-selective media to verify that the inherited resistance was genetically stable. The sensitivity of the strains to BASA was then established using antimicrobial sensitivity assays (Table 2 and Figure S8A). The isotypic parent strain was highly sensitive to BASA, with an MIC of 0.0625 µg/mL. […] To determine if there was a fitness cost associated with these mutations, in vitro growth curves for the seven strains were analyzed and doubling times calculated (Table 2, Figure S8B). […] To test if the resistance mechanisms identified were specific for BASA, all seven strains were subjected to antibacterial susceptibility assays against a panel of diverse antibiotics that included two known BPL inhibitors, namely biotinol-5′-AMP [32] and BPL223 (compound 4c in [30]). The evolved resistance mechanisms appeared specific to the BPL inhibitors as there was no change in susceptibility to β-lactams amoxicillin and methicillin (Table S1).

[2] = target: T2, biotin protein ligase (SaBPL-D200E) (Staphylococcus aureus, UniProt A0A3A5LBF0, D200E); assay: native nESI-MS of holo protein (monomer); assay type: binding
T2 construct: gene birA; recombinant SaBPL-D200E

[3] = target: T3, biotin protein ligase (SaBPL) (Staphylococcus aureus, UniProt A0A3A5LBF0); assay: native nESI-MS of holo protein (homodimer); assay type: binding
T3 construct: gene birA; recombinant SaBPL

[4] = target: Staphylococcus aureus biotin protein ligase (SaBPL), wildtype (S. aureus Mu50); assay: native MS; native nESI-MS (Waters Synapt G1 HDMS), holo protein (biotinyl-5'-AMP bound); 10 uM wildtype SaBPL; SaBPL-D200E at 1.4 to 90 uM; monomer to dimer
[5] = test system: O=C(O)CCCC[C@@H]1SC[C@@H]2NC(=O)N[C@@H]21; assay: purified protein; details: MgATP biotin-binding pocket (biotin-binding loop residues […])
[6] = test system: O=C(O)CCCC[C@@H]1SC[C@@H]2NC(=O)N[C@@H]21; assay: in vitro protein biotinylation assay, Km; assay type: biochemical, Staphylococcus aureus; details: MgATP biotin-binding pocket (biotin-binding loop residues […])
[7] = target: SaBPL (biotin protein ligase, BirA) wild type (Staphylococcus aureus Mu50, UniProt A0A0H3JRH8 1-323); assay: EMSA; 100 uM biotin + MgATP, 2.5% DMSO (control for BASA); EMSA adapted from cited protocols; buffer, salt, pH and temperature not given; BASA or biotin at 100 uM with 2.5% DMSO in the Fig S7 assays; details: protein: recombinant

Molecule CC1(C)S[C@@H]2[C@H](NC(=O)[C@H](N)c3ccc(O)cc3)C(=O)N2[C@H]1C(=O)O [amoxicillin] has an MIC [1] of 16 µg/mL (≈ 43.8 µM).

Nc1ncnc2c1ncn2[C@@H]1O[C@H](COP(=O)(O)OCCCCC[C@@H]2SC[C@@H]3NC(=O)N[C@@H]32)[C@@H](O)[C@H]1O [biotinol-5'-AMP, biotinol-5′-AMP] showed an MIC [1] of 1 µg/mL (≈ 1.79 µM).

Nc1ncnc2c1ncn2[C@@H]1O[C@H](COP(=O)(O)OC(=O)CCCC[C@@H]2SC[C@@H]3NC(=O)N[C@@H]32)[C@@H](O)[C@H]1O [biotinyl-5′-AMP] was tested, and the “native nESI-MS of holo protein (monomer)” value [2] was “native nESI–MS provided sufficient mass resolution to confirm the presence of bound biotinyl-5′-AMP” and the “native nESI-MS of holo protein (homodimer)” value [3] was “SaBPL underwent a well-characterized monomer-to-dimer transition induced by biotinyl-5′-AMP (Figure 3A,B)”.

With COc1cccc(OC)c1C(=O)N[C@@H]1C(=O)N2[C@@H]1SC(C)(C)[C@@H]2C(=O)O [methicillin] the MIC [1] was 2 µg/mL (≈ 5.26 µM).

In the case of “Staphylococcus aureus biotin protein ligase (SaBPL), wildtype (enzyme)”, the stoichiometry N [4] is reported as 2.

Work on “biotin protein ligase (SaBPL) (Staphylococcus aureus)” yielded a Km [5] of 1.8 ± 0.3 µM.

For “biotin protein ligase (SaBPL-D200E) (Staphylococcus aureus; D200E)”, the Km [6] was 3.8 ± 0.4 µM.

B1: bioO (dsDNA)
DNA 1: CCTTAAATGTAAACTTTTATAATTAATAAGTTTACATTTAAG
DNA 2: CCTTAAATGTAAACTTATTAATTATAAAAGTTTACATTTAAGG
B1: binds ([7]; bottom strand 5' overhang 1 nt as printed (top 42 nt lacks the final G)).

B2: bioY (dsDNA)
DNA 1: AACTTATTGTAAACTTTTCATTTCTTAAAGTTTACAATGGTGCT
DNA 2: AGCACCATTGTAAACTTTAAGAAATGAAAAGTTTACAATAAGTT
B2: binds ([7]; blunt).
